Laboratory results from US10209240B2, “Predicting human developmental toxicity of pharmaceuticals using human stem-like cells and metabolomic ratios” (STEMINA BIOMARKER DISCOVERY, INC., priority 2012, dated 2019).

Columns and labels:
WA09 hES cells = assay: Phase 2 targeted biomarker assay, ornithine/cystine ratio, 9-point dose response; conditions: for Teratogenicity Potential (μM) O/C Ratio: human, 72 h
Procedure, shortened: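 WA09 hES cells (≤ passage 40), plated as single cells at 100,000/well on Matrigel in mTeSR1 with 10 μM Y27632, dosed 24 h later with nine 3-fold dilutions, 0.04–300 μM, 0.1% DMSO, for 72 h. Final-24 h spent medium, spiked with 13C6-arginine and filtered (<10 kDa), analysed by LC-HRMS; viability by CellTiter-Fluor.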

hES cells [1] = assay: ADMA/cystine ratio simplified predictive model in hES cell spent media; format: cell-based, human; conditions: single dose per treatment; ratios less than 0.9 indicate teratogenicity
Procedure, shortened: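 hES cell spent media were analysed for ADMA and cystine, each normalized to the DMSO reference, and their ratio formed. Each value is the median of independent blocks (6 reps each). A ratio cutoff of 0.9 classifies teratogens versus non-teratogens.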

Rabbit = conditions: training and test set; cited from earlier work
[2] = training set compounds; summarized from TERIS and Briggs et al. 2011; cited from earlier work
[3] = training set; therapeutic peak plasma in vivo concentration, human; cited from earlier work
rat whole embryo = conditions: training and test set; weak/moderate and strong teratogens both labeled teratogen; cited from earlier work
zebrafish = conditions: training and test set; weak/moderate and strong teratogens both labeled teratogen; cited from earlier work
hES cells [4] = assay: devTOX computational model predictions (Version 2.0, Version 2.1) from hES cell metabolomics; format: cell-based, human; conditions: single dose per treatment (Dose column)
Text: The selection process weighted the predictive capacity of a feature, overall intensity, and peak shape to identify very well behaved features/metabolites that could be measured by targeted LC-MS or even by other detection systems.
This simplified model is based on a ratio of the reference treatment (DMSO) normalized values of ADMA and cystine.

Row | Structure (SMILES) | O/C Ratio Prediction (WA09 hES cells) | Targeted Biomarker Assay prediction (WA09 hES cells) | Teratogenicity Potential (μM) O/C Ratio (WA09 hES cells) | Model Predictions ADMA/Cystine (hES cells [1]) | Rabbit prediction (Rabbit) | Preclinical in vivo and known human developmental effects [2] | Cmax [3] | WEC prediction (rat whole embryo) | ZET prediction (zebrafish) | Model Predictions Version 2.0 (hES cells [4]) | Model Predictions Version 2.1 (hES cells [4]) | Classification by o/c ratio in the targeted biomarker assay (WA09 hES cells) | Change in the o/c ratio, also relative to cytotoxicity (WA09 hES cells)
1 | CC1=C(/C=C/C(C)=C/C=C/C(C)=C\C(=O)O)C(C)(C)CCC1 [13-cis Retinoic Acid] | TER | TER | 0.0007 µM | Ter | TER | Craniofacial, limb, central | 2900 nM | TER^s | TER^r | Ter | Ter | – | –
2 | NC(=O)N1c2ccccc2C=Cc2ccccc21 [Carbamazepine] | TER | TER | 0.9 µM | Ter | – | Craniofacial, central | – | TER^j | TER^t | Ter | Ter | – | –
3 | O=C1NC(=O)C(c2ccccc2)(c2ccccc2)N1 [Diphenylhydantoin] | NON | NON | 263.3 µM | Non | TER | Craniofacial, limb, | – | TER^f,j | NON^a | Non | Non | misclassified | –
4 | O=C1CCC(N2C(=O)c3ccccc3C2=O)C(=O)N1 (stereo not shown) [Thalidomide] | TER | TER | 0.2 µM | Ter | TER | Craniofacial, | 12400 nM | TER^f | TER^d | Ter | Ter | – | change in the o/c ratio indicative of developmental toxicity in the absence of cytotoxicity
5 | CC1=C(/C=C/C(C)=C/C=C/C(C)=C/C(=O)O)C(C)(C)CCC1 [All-trans Retinoic Acid] | TER | TER | 0.00004 µM | Ter | TER | Craniofacial, limb, central | 1200 nM | TER^q,s | TER^c,e,r | Ter | Ter | – | change in the o/c ratio indicative of developmental toxicity in the absence of cytotoxicity
